The record followed here is patent US12441726B2, “Compounds and uses thereof” (Foghorn Therapeutics Inc., priority 2020, dated 2025).

Sequence of BRG-1 (P51532 whole entry): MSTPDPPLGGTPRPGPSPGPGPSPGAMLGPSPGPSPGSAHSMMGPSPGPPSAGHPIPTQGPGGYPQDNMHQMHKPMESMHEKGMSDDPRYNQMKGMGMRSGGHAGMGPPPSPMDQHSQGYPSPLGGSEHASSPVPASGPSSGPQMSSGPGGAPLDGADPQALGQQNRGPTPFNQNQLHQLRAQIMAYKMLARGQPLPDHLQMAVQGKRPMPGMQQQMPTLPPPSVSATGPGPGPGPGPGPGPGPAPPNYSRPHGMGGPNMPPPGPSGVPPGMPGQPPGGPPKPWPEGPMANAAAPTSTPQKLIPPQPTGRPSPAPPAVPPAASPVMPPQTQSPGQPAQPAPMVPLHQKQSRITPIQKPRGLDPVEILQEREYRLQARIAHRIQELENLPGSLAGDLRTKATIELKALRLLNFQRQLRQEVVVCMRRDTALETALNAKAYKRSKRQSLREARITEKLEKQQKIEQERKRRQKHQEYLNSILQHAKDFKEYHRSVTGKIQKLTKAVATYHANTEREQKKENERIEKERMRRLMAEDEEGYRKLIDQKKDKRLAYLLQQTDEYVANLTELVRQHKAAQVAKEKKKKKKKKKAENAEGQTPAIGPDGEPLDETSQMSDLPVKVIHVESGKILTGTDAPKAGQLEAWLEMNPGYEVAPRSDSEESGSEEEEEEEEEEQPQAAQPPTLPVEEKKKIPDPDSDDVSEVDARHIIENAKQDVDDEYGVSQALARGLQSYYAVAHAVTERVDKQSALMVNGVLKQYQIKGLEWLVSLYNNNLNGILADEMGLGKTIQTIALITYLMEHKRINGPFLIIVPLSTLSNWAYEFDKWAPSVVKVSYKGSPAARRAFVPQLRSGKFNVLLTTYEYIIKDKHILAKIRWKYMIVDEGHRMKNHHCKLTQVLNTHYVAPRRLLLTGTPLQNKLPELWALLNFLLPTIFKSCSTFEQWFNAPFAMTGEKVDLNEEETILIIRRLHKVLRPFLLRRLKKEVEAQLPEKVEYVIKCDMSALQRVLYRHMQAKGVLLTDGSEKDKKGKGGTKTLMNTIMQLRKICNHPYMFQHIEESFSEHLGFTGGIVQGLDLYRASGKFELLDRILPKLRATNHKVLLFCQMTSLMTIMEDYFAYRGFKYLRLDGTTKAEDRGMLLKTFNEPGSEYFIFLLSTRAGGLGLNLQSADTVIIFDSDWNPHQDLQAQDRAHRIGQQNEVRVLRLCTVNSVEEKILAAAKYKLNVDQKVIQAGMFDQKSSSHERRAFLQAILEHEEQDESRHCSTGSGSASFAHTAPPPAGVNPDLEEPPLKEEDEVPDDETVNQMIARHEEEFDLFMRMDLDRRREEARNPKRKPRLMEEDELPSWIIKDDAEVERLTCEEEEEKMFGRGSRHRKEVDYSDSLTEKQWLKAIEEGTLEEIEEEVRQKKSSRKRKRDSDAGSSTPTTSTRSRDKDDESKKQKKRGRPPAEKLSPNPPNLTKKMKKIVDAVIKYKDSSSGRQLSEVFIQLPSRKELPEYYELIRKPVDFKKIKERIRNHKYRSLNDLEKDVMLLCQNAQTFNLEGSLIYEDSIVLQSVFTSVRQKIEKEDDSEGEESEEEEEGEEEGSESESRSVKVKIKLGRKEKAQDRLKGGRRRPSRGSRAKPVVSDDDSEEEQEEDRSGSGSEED

One experiment addresses BRG-1 (Homo sapiens, UniProt P51532). As to the kind of experiment: ATPase catalytic activity assay (ADP-Glo), BRG-1.
Details: not given
Background: In ADP-Glo the light output rises with the ADP produced.
In the case of `C[C@@]1(C#N)COCc2ccc(C(=O)NCc3cc4nc(-c5cnn(-c6cccnc6)c5)ccc4cn3)cc21` [Compound 499], the IC50 (commonly the concentration that gives 50% inhibition) was more than 1 µM.
Take `C[C@@]1(C#N)COCc2ccc(C(=O)NCc3cc(N4CCC[C@H](c5ccccc5)C4)ccn3)cc21` [Compound 55]: the IC50 was more than 1 µM.
Same read-out and setting: next, `C[C@@]1(C#N)COCc2ccc(C(=O)NCc3cc4cc(-c5nccc(N6CCC6)n5)ccc4cn3)cc21` [Compound 365]: 0.1 to 0.5 µM.
Still for that read-out and setting: next, `Cc1cn(C)c2cccc(-c3ccc4cnc(CNC(=O)c5ccc6c(c5)[C@](C)(C#N)COC6)cc4n3)c12` [Compound 177]: 0.5 to 1 µM; `C[C@@]1(C#N)COCc2ccc(C(=O)NCc3cc4cc(-c5ccnc(N6CCC6)c5F)cnc4cn3)cc21` [Compound 294]: 0.1 to 0.5 µM.
With `C[C@@]1(C#N)COCc2ccc(C(=O)NCc3nccc(/C=C/c4ccccc4)c3F)cc21` [Compound 33], the IC50 was more than 1 µM.
Same read-out and setting: next, `CN1CCC(NC(=O)c2cccc(-c3ccc4cnc(CNC(=O)c5ccc6c(c5)[C@](C)(C#N)COC6)cc4n3)c2)CC1` [Compound 317]: more than 1 µM; `C[C@@]1(C#N)COCc2ccc(C(=O)NCc3cc(/C=C(\F)c4ccccc4)ccn3)cc21` [Compound 29]: more than 1 µM; `Cc1cncc(-c2ccc3cnc(CNC(=O)c4ccc5c(c4)[C@](C)(C#N)COC5)cc3n2)n1` [Compound 408]: 0.5 to 1 µM.
Still for that read-out and setting: next, `C[C@@]1(C#N)COCc2ccc(C(=O)NCc3cc4nc(-c5cncc(N6CCC6)c5)ccc4cn3)cc21` [Compound 441]: 0.5 to 1 µM; `COc1c(-c2ccc3cnc(CNC(=O)c4ccc5c(c4)[C@](C)(C#N)COC5)cc3n2)cnn1C` [Compound 462]: 0.5 to 1 µM; `C[C@@]1(C#N)COCc2ccc(C(=O)NCc3cc(N4CCC5CCCCC5C4)ccn3)cc21` (some centres unmarked) [Compound 57]: more than 1 µM.
The compound `CC(=O)N1CCOc2ccc(-c3ccc4cnc(CNC(=O)c5ccc6c(c5)[C@](C)(C#N)COC6)cc4n3)cc21` [Compound 475] gave an IC50 of 0.1 to 0.5 µM.
Same read-out and setting: next, `C[C@@]1(C#N)COCc2ccc(C(=O)NCc3cc4cc(-c5ccccc5)ccc4nn3)cc21` [Compound 494]: 0.1 to 0.5 µM; `COc1cnccc1-c1ccc2cnc(CNC(=O)c3ccc4c(c3)[C@](C)(C#N)COC4)cc2n1` [Compound 507]: 0.1 to 0.5 µM; `C[C@@]1(C#N)COCc2ccc(C(=O)NCc3cc4nc(-c5ccnc(C6CC6)n5)ccc4cn3)cc21` [Compound 417]: 0.1 to 0.5 µM.
In turn, `C[C@@]1(C#N)COCc2ccc(C(=O)NCc3cc4nc(-c5ccccc5)cnc4cn3)cc21` [Compound 463] displayed an IC50 of 0.5 to 1 µM.

Staying with this experiment, now noted: 1 h, read-out: BRG1 Max % Inhibition, ADP-Glo, 30 nM BRG-1, 400 μM ATP.
Take `C[C@@]1(C#N)COCc2ccc(C(=O)NCc3cc4nc(-c5cnn(-c6cccnc6)c5)ccc4cn3)cc21` [Compound 499]: the Emax was 29%.
Still for that read-out and setting: next, `C[C@@]1(C#N)COCc2ccc(C(=O)NCc3cc(N4CCC[C@H](c5ccccc5)C4)ccn3)cc21` [Compound 55]: 33%; `C[C@@]1(C#N)COCc2ccc(C(=O)NCc3cc4cc(-c5nccc(N6CCC6)n5)ccc4cn3)cc21` [Compound 365]: 98%.
The same measure, in the same setting: next, `Cc1cn(C)c2cccc(-c3ccc4cnc(CNC(=O)c5ccc6c(c5)[C@](C)(C#N)COC6)cc4n3)c12` [Compound 177]: 66%.
For the compound `C[C@@]1(C#N)COCc2ccc(C(=O)NCc3cc4cc(-c5ccnc(N6CCC6)c5F)cnc4cn3)cc21` [Compound 294], the Emax stood at 86%.
On the same count and under the same terms, next, `C[C@@]1(C#N)COCc2ccc(C(=O)NCc3nccc(/C=C/c4ccccc4)c3F)cc21` [Compound 33]: 78%.
On the same count and under the same terms, next, `CN1CCC(NC(=O)c2cccc(-c3ccc4cnc(CNC(=O)c5ccc6c(c5)[C@](C)(C#N)COC6)cc4n3)c2)CC1` [Compound 317]: 96%; `C[C@@]1(C#N)COCc2ccc(C(=O)NCc3cc(/C=C(\F)c4ccccc4)ccn3)cc21` [Compound 29]: 69%; `Cc1cncc(-c2ccc3cnc(CNC(=O)c4ccc5c(c4)[C@](C)(C#N)COC5)cc3n2)n1` [Compound 408]: 65%.
Take `C[C@@]1(C#N)COCc2ccc(C(=O)NCc3cc4nc(-c5cncc(N6CCC6)c5)ccc4cn3)cc21` [Compound 441]: the Emax was 80%.
As for `COc1c(-c2ccc3cnc(CNC(=O)c4ccc5c(c4)[C@](C)(C#N)COC5)cc3n2)cnn1C` [Compound 462], the Emax stood at 71%.
Still for that read-out and setting: next, `C[C@@]1(C#N)COCc2ccc(C(=O)NCc3cc(N4CCC5CCCCC5C4)ccn3)cc21` (some centres unmarked) [Compound 57]: 37%.
Still for that read-out and setting: next, `CC(=O)N1CCOc2ccc(-c3ccc4cnc(CNC(=O)c5ccc6c(c5)[C@](C)(C#N)COC6)cc4n3)cc21` [Compound 475]: 98%; `C[C@@]1(C#N)COCc2ccc(C(=O)NCc3cc4cc(-c5ccccc5)ccc4nn3)cc21` [Compound 494]: 90%; `COc1cnccc1-c1ccc2cnc(CNC(=O)c3ccc4c(c3)[C@](C)(C#N)COC4)cc2n1` [Compound 507]: 77%.
Still for that read-out and setting: next, `C[C@@]1(C#N)COCc2ccc(C(=O)NCc3cc4nc(-c5ccnc(C6CC6)n5)ccc4cn3)cc21` [Compound 417]: 91%; `C[C@@]1(C#N)COCc2ccc(C(=O)NCc3cc4nc(-c5ccccc5)cnc4cn3)cc21` [Compound 463]: 82%.

Another experiment deals with BRM (Homo sapiens, UniProt P51531). Briefly: ATPase catalytic activity assay (ADP-Glo), BRM. The following applies: 30 nM BRM, 400 μM ATP.
Sequence of BRM (P51531 whole entry): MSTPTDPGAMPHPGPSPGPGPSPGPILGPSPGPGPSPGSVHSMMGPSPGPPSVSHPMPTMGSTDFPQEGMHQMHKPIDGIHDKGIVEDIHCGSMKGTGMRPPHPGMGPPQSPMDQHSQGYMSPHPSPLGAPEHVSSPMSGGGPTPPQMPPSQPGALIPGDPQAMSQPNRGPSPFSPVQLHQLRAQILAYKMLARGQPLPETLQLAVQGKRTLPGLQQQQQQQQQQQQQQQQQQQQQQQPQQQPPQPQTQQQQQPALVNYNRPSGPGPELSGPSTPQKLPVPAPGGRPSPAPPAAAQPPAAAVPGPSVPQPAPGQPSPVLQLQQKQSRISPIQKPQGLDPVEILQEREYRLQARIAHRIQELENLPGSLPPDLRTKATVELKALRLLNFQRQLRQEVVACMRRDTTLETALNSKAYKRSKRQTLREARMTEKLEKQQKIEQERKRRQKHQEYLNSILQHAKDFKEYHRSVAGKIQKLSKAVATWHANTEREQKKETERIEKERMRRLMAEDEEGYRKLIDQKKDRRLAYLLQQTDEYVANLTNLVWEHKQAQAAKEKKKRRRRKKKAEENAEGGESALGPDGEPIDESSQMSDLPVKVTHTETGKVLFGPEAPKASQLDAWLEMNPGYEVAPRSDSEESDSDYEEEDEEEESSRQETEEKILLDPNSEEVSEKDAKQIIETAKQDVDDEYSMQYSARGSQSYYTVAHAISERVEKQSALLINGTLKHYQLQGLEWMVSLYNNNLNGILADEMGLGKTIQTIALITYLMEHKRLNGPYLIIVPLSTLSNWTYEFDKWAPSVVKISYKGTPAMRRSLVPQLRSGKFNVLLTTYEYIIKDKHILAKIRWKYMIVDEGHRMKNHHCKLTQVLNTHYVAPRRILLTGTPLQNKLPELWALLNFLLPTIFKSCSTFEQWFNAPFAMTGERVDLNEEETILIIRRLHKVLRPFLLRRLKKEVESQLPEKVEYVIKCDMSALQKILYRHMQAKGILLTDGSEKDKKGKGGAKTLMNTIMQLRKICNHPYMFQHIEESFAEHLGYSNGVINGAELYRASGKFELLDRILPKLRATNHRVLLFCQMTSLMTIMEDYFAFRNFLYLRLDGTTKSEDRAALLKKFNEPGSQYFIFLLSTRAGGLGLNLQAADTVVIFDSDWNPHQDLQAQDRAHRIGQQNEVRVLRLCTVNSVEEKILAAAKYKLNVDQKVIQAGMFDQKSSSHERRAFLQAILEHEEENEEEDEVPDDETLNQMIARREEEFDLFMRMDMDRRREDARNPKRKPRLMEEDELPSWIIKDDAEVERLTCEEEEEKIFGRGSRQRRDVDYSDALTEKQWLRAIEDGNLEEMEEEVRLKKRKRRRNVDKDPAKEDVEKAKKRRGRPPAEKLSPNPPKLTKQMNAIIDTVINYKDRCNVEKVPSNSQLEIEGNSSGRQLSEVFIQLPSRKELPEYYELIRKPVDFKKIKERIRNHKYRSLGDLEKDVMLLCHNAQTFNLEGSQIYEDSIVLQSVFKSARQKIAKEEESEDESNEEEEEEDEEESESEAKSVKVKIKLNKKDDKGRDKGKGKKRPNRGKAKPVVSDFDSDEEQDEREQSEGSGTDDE
Regarding `C[C@@]1(C#N)COCc2ccc(C(=O)NCc3cc4nc(-c5cnn(-c6cccnc6)c5)ccc4cn3)cc21` [Compound 499], the “BRM Max % Inhibition” value amounted to 85%.
For `C[C@@]1(C#N)COCc2ccc(C(=O)NCc3cc(N4CCC[C@H](c5ccccc5)C4)ccn3)cc21` [Compound 55], the “BRM Max % Inhibition” value was 82%.
Same read-out and setting: next, `C[C@@]1(C#N)COCc2ccc(C(=O)NCc3cc4cc(-c5nccc(N6CCC6)n5)ccc4cn3)cc21` [Compound 365]: 99%; `Cc1cn(C)c2cccc(-c3ccc4cnc(CNC(=O)c5ccc6c(c5)[C@](C)(C#N)COC6)cc4n3)c12` [Compound 177]: 94%; `C[C@@]1(C#N)COCc2ccc(C(=O)NCc3cc4cc(-c5ccnc(N6CCC6)c5F)cnc4cn3)cc21` [Compound 294]: 100%.
The same measure, in the same setting: next, `C[C@@]1(C#N)COCc2ccc(C(=O)NCc3nccc(/C=C/c4ccccc4)c3F)cc21` [Compound 33]: 98%; `CN1CCC(NC(=O)c2cccc(-c3ccc4cnc(CNC(=O)c5ccc6c(c5)[C@](C)(C#N)COC6)cc4n3)c2)CC1` [Compound 317]: 100%; `C[C@@]1(C#N)COCc2ccc(C(=O)NCc3cc(/C=C(\F)c4ccccc4)ccn3)cc21` [Compound 29]: 98%.
As to `Cc1cncc(-c2ccc3cnc(CNC(=O)c4ccc5c(c4)[C@](C)(C#N)COC5)cc3n2)n1` [Compound 408], the “BRM Max % Inhibition” value came out at 91%.
On the same count and under the same terms, next, `C[C@@]1(C#N)COCc2ccc(C(=O)NCc3cc4nc(-c5cncc(N6CCC6)c5)ccc4cn3)cc21` [Compound 441]: 97%; `COc1c(-c2ccc3cnc(CNC(=O)c4ccc5c(c4)[C@](C)(C#N)COC5)cc3n2)cnn1C` [Compound 462]: 93%; `C[C@@]1(C#N)COCc2ccc(C(=O)NCc3cc(N4CCC5CCCCC5C4)ccn3)cc21` (some centres unmarked) [Compound 57]: 85%.
On the same count and under the same terms, next, `CC(=O)N1CCOc2ccc(-c3ccc4cnc(CNC(=O)c5ccc6c(c5)[C@](C)(C#N)COC6)cc4n3)cc21` [Compound 475]: 99%; `C[C@@]1(C#N)COCc2ccc(C(=O)NCc3cc4cc(-c5ccccc5)ccc4nn3)cc21` [Compound 494]: 99%; `COc1cnccc1-c1ccc2cnc(CNC(=O)c3ccc4c(c3)[C@](C)(C#N)COC4)cc2n1` [Compound 507]: 97%.
For `C[C@@]1(C#N)COCc2ccc(C(=O)NCc3cc4nc(-c5ccnc(C6CC6)n5)ccc4cn3)cc21` [Compound 417], the “BRM Max % Inhibition” value is listed as 97%.
Still for that read-out and setting: next, `C[C@@]1(C#N)COCc2ccc(C(=O)NCc3cc4nc(-c5ccccc5)cnc4cn3)cc21` [Compound 463]: 98%.

Staying with this experiment, now noted: BRM ATPase: IC50 (uM), 30 nM BRM, 400 μM ATP.
Consider `C[C@@]1(C#N)COCc2ccc(C(=O)NCc3cc4nc(-c5cnn(-c6cccnc6)c5)ccc4cn3)cc21` [Compound 499], for which the IC50 was 0.1 to 0.5 µM.
In turn, `C[C@@]1(C#N)COCc2ccc(C(=O)NCc3cc(N4CCC[C@H](c5ccccc5)C4)ccn3)cc21` [Compound 55] had an IC50 of 0.1 to 0.5 µM.
On the same count and under the same terms, next, `C[C@@]1(C#N)COCc2ccc(C(=O)NCc3cc4cc(-c5nccc(N6CCC6)n5)ccc4cn3)cc21` [Compound 365]: less than 0.1 µM.
Regarding `Cc1cn(C)c2cccc(-c3ccc4cnc(CNC(=O)c5ccc6c(c5)[C@](C)(C#N)COC6)cc4n3)c12` [Compound 177], the IC50 lay within 0.1 to 0.5 µM.
The same measure, in the same setting: next, `C[C@@]1(C#N)COCc2ccc(C(=O)NCc3cc4cc(-c5ccnc(N6CCC6)c5F)cnc4cn3)cc21` [Compound 294]: less than 0.1 µM.
The same measure, in the same setting: next, `C[C@@]1(C#N)COCc2ccc(C(=O)NCc3nccc(/C=C/c4ccccc4)c3F)cc21` [Compound 33]: 0.1 to 0.5 µM; `CN1CCC(NC(=O)c2cccc(-c3ccc4cnc(CNC(=O)c5ccc6c(c5)[C@](C)(C#N)COC6)cc4n3)c2)CC1` [Compound 317]: 0.1 to 0.5 µM; `C[C@@]1(C#N)COCc2ccc(C(=O)NCc3cc(/C=C(\F)c4ccccc4)ccn3)cc21` [Compound 29]: 0.1 to 0.5 µM.
The same measure, in the same setting: next, `Cc1cncc(-c2ccc3cnc(CNC(=O)c4ccc5c(c4)[C@](C)(C#N)COC5)cc3n2)n1` [Compound 408]: 0.1 to 0.5 µM; `C[C@@]1(C#N)COCc2ccc(C(=O)NCc3cc4nc(-c5cncc(N6CCC6)c5)ccc4cn3)cc21` [Compound 441]: 0.1 to 0.5 µM; `COc1c(-c2ccc3cnc(CNC(=O)c4ccc5c(c4)[C@](C)(C#N)COC5)cc3n2)cnn1C` [Compound 462]: 0.1 to 0.5 µM.
The compound `C[C@@]1(C#N)COCc2ccc(C(=O)NCc3cc(N4CCC5CCCCC5C4)ccn3)cc21` (some centres unmarked) [Compound 57] came in with an IC50 of 0.1 to 0.5 µM.
The same measure, in the same setting: next, `CC(=O)N1CCOc2ccc(-c3ccc4cnc(CNC(=O)c5ccc6c(c5)[C@](C)(C#N)COC6)cc4n3)cc21` [Compound 475]: less than 0.1 µM.
`C[C@@]1(C#N)COCc2ccc(C(=O)NCc3cc4cc(-c5ccccc5)ccc4nn3)cc21` [Compound 494]: the half-inhibitory concentration (IC50) is less than 0.1 µM.
The same measure, in the same setting: next, `COc1cnccc1-c1ccc2cnc(CNC(=O)c3ccc4c(c3)[C@](C)(C#N)COC4)cc2n1` [Compound 507]: less than 0.1 µM; `C[C@@]1(C#N)COCc2ccc(C(=O)NCc3cc4nc(-c5ccnc(C6CC6)n5)ccc4cn3)cc21` [Compound 417]: less than 0.1 µM.
The same measure, in the same setting: next, `C[C@@]1(C#N)COCc2ccc(C(=O)NCc3cc4nc(-c5ccccc5)cnc4cn3)cc21` [Compound 463]: less than 0.1 µM.
